The text below walks through data of ChEMBL document CHEMBL1201862, “PubChem BioAssay data set” (2004).

Common to all, as to assay: NCI anticancer screen, dose series, 48 h
The subject of test [1] is A498.
In test [2] the test system is TK-10.
In test [3] the test system is EKVX.
For test [4], the system named is NCI/ADR-RES.
Test [5] relates to NCI-H522.
Test [6] relates to UACC-257.
The subject of test [7] is CAKI-1.
Test [8] concerns SNB-75.
For test [9], the system named is M14.
In test [10] the test system is UACC-62.
Test [11] concerns OVCAR-5.
Test [12] relates to K562.
Test [13] relates to SNB-19.
For test [14], the system named is SF-268.
Test [15] concerns SK-MEL-2.
The subject of test [16] is HL-60.
The test system of test [17] is SN12C.
Test [18] concerns CCRF-CEM.
The subject of test [19] is KM12.
The test system of test [20] is MOLT-4.

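Five compound concentrations were applied to cells in 96-well plates for 48 hours; endpoints were derived by simple linear interpolation of the resulting dose-response curve. GI50 is the concentration that inhibits growth by half.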 The source made the active and inactive calls. No stated cut-off is given here; in the data, active = GI50 up to about 1.1 µM and inactive = higher.

For the molecule `O=C(CSCC(=O)N/N=C/c1cccc(C(F)(F)F)c1)N/N=C/c1cccc(C(F)(F)F)c1`, the GI50 in test [1], in [2], in [3], in test [4], in test [5] and in [6] was > 100 µM (inactive) throughout. Besides, the GI50 in test [7], in test [8], in test [9], in [10], in test [11] and in test [12] was > 100 µM (inactive) throughout. The GI50 in test [13], in test [14], in [15] and in test [16] was > 100 µM (inactive) throughout.

Regarding `O=S(=O)(O)c1cc(S(=O)(=O)O)c2cc(/N=N/c3ccc(/N=N/c4ccc(/C=C/c5ccc(/N=[N+](/[O-])c6ccc(/C=C/c7ccc(/N=N/c8ccc(/N=N/c9ccc%10cc(S(=O)(=O)O)cc(S(=O)(=O)O)c%10c9)cc8)cc7S(=O)(=O)O)c(S(=O)(=O)O)c6)cc5S(=O)(=O)O)c(S(=O)(=O)O)c4)cc3)ccc2c1`, the GI50 in test [1] was > 100 µM (inactive); in test [17], > 54.1 µM (inactive); in test [3], 82.6 µM (inactive); in test [4] it was > 100 µM (inactive); in test [5], > 55.8 µM (inactive); in test [6], > 60.3 µM (inactive). Further, the GI50 in [18] is > 100 µM (inactive); in test [8], 35.8 µM (inactive); in [10], 7.93 µM (inactive); in test [19], 26.7 µM (inactive); in [11], > 79.3 µM (inactive); in test [12] it was > 100 µM (inactive). The GI50 in test [13] was 25.9 µM (inactive); in test [14], > 69 µM (inactive); in test [15] it was 83.9 µM (inactive); in test [20], > 79.3 µM (inactive); in [16], 54.1 µM (inactive).

With `O=C(NC(Cc1ccc(Br)cc1)C(=O)O)c1ccc(I)cc1` (stereo not given), the GI50 in test [1] is > 100 µM (inactive); in test [17], > 100 µM (inactive); in test [3] it was > 52 µM (inactive); in [4], > 100 µM (inactive); in test [5], > 82.6 µM (inactive); in test [6], > 100 µM (inactive). Moreover, the GI50 was > 72.9 µM (inactive) in [18]; > 100 µM (inactive) in test [7]; > 95.7 µM (inactive) in test [8]; 71.9 µM (inactive) in [10]; > 100 µM (inactive) in test [19]; > 100 µM (inactive) in test [11]. For the same molecule, the GI50 in test [12] is > 100 µM (inactive); in test [13] it was > 81.3 µM (inactive); in test [14] it was > 100 µM (inactive); in [15], > 100 µM (inactive); in test [20], > 69.5 µM (inactive); in test [16] it was > 100 µM (inactive).

In the case of `COc1cc(C2S/C(=C/c3ccccc3)C(=O)N2c2ccc(NC(C)=O)cc2)cc(OC)c1OC` (stereo not given), the GI50 is 21.4 µM (inactive) in [1]; 15.8 µM (inactive) in test [17]; 37.2 µM (inactive) in [2]; 9.71 µM (inactive) in test [3]; 23.4 µM (inactive) in [4]; 10.1 µM (inactive) in [5]. Further, the GI50 in [6] was 37.2 µM (inactive); in test [18], 0.319 µM (active); in test [7], 18.8 µM (inactive); in test [8], 3.3 µM (inactive); in test [9] it was 19.5 µM (inactive); in [10], 20 µM (inactive). In addition, the GI50 was 14.1 µM (inactive) in test [19]; 28 µM (inactive) in test [11]; 16 µM (inactive) in test [12]; 38.1 µM (inactive) in test [13]; 17.9 µM (inactive) in [14]; 0.71 µM (active) in [15]. In test [20], the GI50 was 4.61 µM (inactive).

Take `COc1ccc2cc1Oc1ccc(cc1)CC1c3c(cc(OC)c4c3Oc3cc5c(cc3O4)CCNC5C2)CCN1C` (stereo not given): the GI50 was 2.1 µM (inactive) in test [1]; 1.91 µM (inactive) in test [17]; 1.86 µM (inactive) in test [2]; 1.94 µM (inactive) in test [3]; 1.92 µM (inactive) in test [4]; 1.7 µM (inactive) in test [5]. Further, the GI50 in test [6] was 1.67 µM (inactive); in test [18], 1.24 µM (inactive); in test [7], 2.87 µM (inactive); in test [9] it was 2.58 µM (inactive); in test [10], 1.82 µM (inactive); in test [19], 1.85 µM (inactive). Also, the GI50 is 3.6 µM (inactive) in test [11]; 2 µM (inactive) in test [13]; 1.95 µM (inactive) in [14]; 1.84 µM (inactive) in test [15]; 1.46 µM (inactive) in test [20]; 1.84 µM (inactive) in test [16].

Take `Nc1nc2c(c(-c3ccc(F)cc3)n1)COC/C2=C\c1ccc(F)cc1`: the GI50 is > 100 µM (inactive) in test [1]; > 100 µM (inactive) in [17]; 30.1 µM (inactive) in [2]; 18.6 µM (inactive) in test [3]; 65.8 µM (inactive) in [4]; 10.8 µM (inactive) in test [5]. The GI50 in test [6] was 45.6 µM (inactive); in test [18], 52.5 µM (inactive); in [7] it was > 100 µM (inactive); in test [8] it was 20.5 µM (inactive); in test [9] it was > 100 µM (inactive); in test [10], 79.4 µM (inactive). The GI50 in test [19] is 15.7 µM (inactive); in [11], > 100 µM (inactive); in [12], 35.6 µM (inactive); in [13], 24.8 µM (inactive); in test [14], 14.5 µM (inactive); in test [15], > 100 µM (inactive). The GI50 in test [20] is 51.2 µM (inactive); in [16], 39.1 µM (inactive).

For `CC1(O)C2(c3ccccc3)CCC[N+]1(C)CC2` (stereo not given), the GI50 in test [1], in test [17], in test [2], in test [4], in test [6] and in [18] was > 100 µM (inactive) each time. In addition, the GI50 in test [7], in [8], in test [9], in test [10], in [19] and in test [11] was > 100 µM (inactive) in each case. Further, the GI50 in test [12], in test [13], in test [15], in [20] and in test [16] was > 100 µM (inactive) in each case.
